Eight compounds from patent publication US5185320A, “O^56 -alkyl derivatives of aglycone and pseudo aglycones of teicoplanin” (Gruppo Lepetit S.p.A., priority 1989, dated 1993) can be followed below.

Holding throughout (assay type): cell-based
Conditions in all cases: inoculum about 10^4 CFU/ml, 18-24 h at 37° C.

The test system of test [1] is Strep. faecalis ATCC 7080. As to the kind of experiment: MIC, standard dilution test, Strep. faecalis ATCC 7080. The method, then:
(§1) ISOSENSITEST broth (Oxoid) and TOLLD-HEWITT broth (Difco) are used for growing staphylococci and streptococci, respectively. Broth cultures are diluted so that the final inoculum is about 10^4 colony forming units/ml (CFU/ml).

Test [2] relates to Strep. pneumoniae UC41. Kind of test: MIC, standard dilution test, Strep. pneumoniae UC41. The method, then: as §1
Test [3] relates to Pseudomonas aeruginosa ATCC 10145. As to the kind of experiment: MIC, standard dilution test, Pseudomonas aeruginosa ATCC 10145. Here is the method:
as §1

The test system of test [4] is Neisseria gonorrhoeae ISM68/126. As to the kind of experiment: MIC, standard dilution test, Neisseria gonorrhoeae ISM68/126. The method, then:
as §1

In test [5] the test system is Staph. epidermidis ATCC 12228. Kind of test: MIC, standard dilution test, Staph. epidermidis ATCC 12228. Here is the method:
as §1

Test [6] deals with Staph. aureus Tour L 165. As to the kind of experiment: MIC, standard dilution test, Staph. aureus Tour L 165. Here is the method: as §1
Test [7] deals with Strep. pyogenes C 203. As to the kind of experiment: MIC, standard dilution test, Strep. pyogenes C 203. The method, then: as §1
The subject of test [8] is Strep. mitis L 796. Kind of test: MIC, standard dilution test, Strep. mitis L 796. Here is the method: as §1
Test [9] concerns Staph. haemolyticus L 602. Kind of test: MIC, standard dilution test, Staph. haemolyticus L 602. Here is the method:
as §1

Test [10] deals with Haemophilus influenzae ATCC 19418. As to the kind of experiment: MIC, standard dilution test, Haemophilus influenzae ATCC 19418. The method, then: as §1
Test [11] has as its system Escherichia coli SKF 12140. Kind of test: MIC, standard dilution test, Escherichia coli SKF 12140. Here is the method: as §1
For test [12], the system named is Proteus vulgaris ATCC 881. As to the kind of experiment: MIC, standard dilution test, Proteus vulgaris ATCC 881. The method, then: as §1

For `NC1C(=O)NC2Cc3ccc(c(Cl)c3)Oc3cc4cc(c3OC3CCOC3=O)Oc3ccc(cc3Cl)C(O)C3NC(=O)C(NC(=O)C4NC(=O)C(NC2=O)c2cc(O)cc(c2)Oc2cc1ccc2O)c1ccc(O)c(c1)-c1c(O)cc(O)cc1C(C(=O)O)NC3=O` (stereo not drawn) [Compound 16, O^56-(tetrahydro-2-oxo-3-furanyl)deglucoteicoplanin], the “Minimal inhibitory concentration (MIC)” value is 0.5 in test [1]; 0.25 in [2]; > 128 in test [3]; 64 in [4]; 0.25 in test [5]; 0.125 in [6]. Also, the “Minimal inhibitory concentration (MIC)” value is on record as 0.5 in test [7]; 0.5 in test [8]; 4 in test [9]; > 128 in test [10]; > 128 in test [11]; > 128 in test [12].
Regarding `Cl.NC1C(=O)NC2Cc3ccc(c(Cl)c3)Oc3cc4cc(c3OCCBr)Oc3ccc(cc3Cl)C(O)C3NC(=O)C(NC(=O)C4NC(=O)C(NC2=O)c2cc(O)cc(c2)Oc2cc1ccc2O)c1ccc(O)c(c1)-c1c(O)cc(O)cc1C(C(=O)OCCBr)NC3=O` (stereo not drawn) [Compound 17, O^56-(2-bromoethyl)deglucoteicoplanin 2-bromoethyl ester hydrochloride salt], the “Minimal inhibitory concentration (MIC)” value in test [1] was 0.125; in [2] it was 0.5; in test [3], > 128; in test [4], > 128; in [5], 0.125; in test [6], 0.25. The “Minimal inhibitory concentration (MIC)” value in test [7] was 0.125; in test [8], 0.25; in test [9] it was 4; in [10] it was > 128; in [11], > 128; in [12], > 128.
Turning to `NC1C(=O)NC2Cc3ccc(c(Cl)c3)Oc3cc4cc(c3OCc3ccccc3)Oc3ccc(cc3Cl)C(O)C3NC(=O)C(NC(=O)C4NC(=O)C(NC2=O)c2cc(O)cc(c2)Oc2cc1ccc2O)c1ccc(O)c(c1)-c1c(O)cc(O)cc1C(C(=O)OCc1ccccc1)NC3=O` (stereo not drawn) [Compound 20, O^56 -phenylmethyldeglucoteicoplanin phenylmethyl ester], the “Minimal inhibitory concentration (MIC)” value in [1] was 0.5; in [2] it was 0.25; in test [3], > 128; in test [4], > 128; in test [5], 0.25; in test [6] it was 0.5. Besides, the “Minimal inhibitory concentration (MIC)” value in [7] is given as 0.125; in test [8] it was 0.125; in test [9], 4; in [10], > 128; in test [11], > 128; in [12] it was > 128.
Turning to `NC1C(=O)NC2Cc3ccc(c(Cl)c3)Oc3cc4cc(c3OC3CCOC3=O)Oc3ccc(cc3Cl)C(O)C3NC(=O)C(NC(=O)C4NC(=O)C(NC2=O)c2cc(O)cc(c2)Oc2cc1ccc2O)c1ccc(O)c(c1)-c1c(O)cc(O)cc1C(C(=O)OCc1ccccc1)NC3=O` (stereo not drawn) [Compound 21, O^56-(tetrahydro-2-oxo-3-furanyl)deglucoteicoplanin phenylmethyl ester], the “Minimal inhibitory concentration (MIC)” value in [1] is on record as 2; in [2], 0.25; in test [3], > 128; in [4], > 128; in test [5], 1; in test [6], 2. Moreover, the “Minimal inhibitory concentration (MIC)” value is recorded as 0.125 in [7]; 0.25 in test [8]; 4 in test [9]; > 128 in test [10]; > 128 in test [11]; > 128 in test [12].
For `NC1C(=O)NC2Cc3ccc(c(Cl)c3)Oc3cc4cc(c3OC3CCOC3=O)Oc3ccc(cc3Cl)C(O)C3NC(=O)C(NC(=O)C4NC(=O)C(NC2=O)c2cc(O)cc(c2)Oc2cc1ccc2O)c1ccc(O)c(c1)-c1c(O)cc(O)cc1C(C(=O)OC1CCOC1=O)NC3=O` (stereo not drawn) [Compound 23, O^56-(tetrahydro-2-oxo-3-furanyl)deglucoteicoplanin (tetrahydro-2-oxo-3-furanyl) ester], the “Minimal inhibitory concentration (MIC)” value in test [1] was 1; in test [2], 0.5; in [3], > 128; in test [4], > 128; in [5], 0.25; in [6], 0.5. Moreover, the “Minimal inhibitory concentration (MIC)” value in [7] is 2; in [8], 2; in [9], 8; in test [10], > 128; in [11], > 128; in test [12], > 128.
With `NCCNC(=O)C(CCO)OC(=O)C1NC(=O)C2NC(=O)C(NC(=O)C3NC(=O)C4NC(=O)C(Cc5ccc(c(Cl)c5)Oc5cc3cc(c5OC(CCO)C(=O)NCCN)Oc3ccc(cc3Cl)C2O)NC(=O)C(N)c2ccc(O)c(c2)Oc2cc(O)cc4c2)c2ccc(O)c(c2)-c2c(O)cc(O)cc21` (stereo not drawn) [Compound 24], the “Minimal inhibitory concentration (MIC)” value was 0.5 in [1]; 0.25 in test [2]; > 128 in [3]; 128 in [4]; 0.125 in test [5]; 0.25 in test [6]. For the same compound, the “Minimal inhibitory concentration (MIC)” value in test [7] is 0.125; in [8], 0.125; in test [9] it was 0.25; in test [10], > 128; in test [11], 32; in test [12], 128.
Regarding “O-(2-(3-(4-(3-amino-propyl)amino)butyl)amino)propyl)amino)-1-hydroxy-2-oxoethyl)teicoplanin aglycone 1-(3-(4-(3-aminopropyl) amino)butyl)amino)propyl)amino)carbonyl)-3-hydroxy-propyl ester [Compound 25]”, the “Minimal inhibitory concentration (MIC)” value in test [1] is 1; in test [2], 0.125; in test [3] it was > 128; in [4], > 128; in test [5], 0.125; in test [6], 0.25. The “Minimal inhibitory concentration (MIC)” value in test [7] is reported as 0.125; in test [8], 0.125; in test [9], 0.25; in test [10], > 128; in [11], 32; in test [12], 64.
For “O^56 -(2-bromoethyl)deglucoteicoplanin phenylmethyl ester [Compound 19]”, the “Minimal inhibitory concentration (MIC)” value is on record as 4 in [1]; 0.5 in test [2]; > 128 in test [3]; > 128 in test [4]; 0.5 in [5]; 1 in [6]. Moreover, the “Minimal inhibitory concentration (MIC)” value is reported as 0.25 in test [7]; 0.25 in test [8]; 4 in test [9]; > 128 in [10]; > 128 in test [11]; > 128 in test [12].
